From patent US9168253B2, “Quinazoline compounds” (HUTCHISON MEDIPHARMA LIMITED, priority 2010, dated 2015) come the findings set out here.

Each structure is given as a SMILES string.

One assay deals with T1, EGFR (Homo sapiens, UniProt P00533).
T1 construct: endogenous in cells; host or cells: A431 (human epidermoid carcinoma)
As to the kind of experiment: EGFR Activation-Inhibiting Test (DELFIA, EGF-stimulated A431 cells). It is filed as cell-based. To be noted: 60 min compound, EGF stimulation 45 min, read-out: IC50 (inhibition of EGF-stimulated EGFR activation). As for the experimental part:
Cell seeding and starving: A431 (human epidermoid carcinoma) cells diluted in 10% […] containing DMEM are seeded at 1.3×10^4 cells/well in 96-well plates and incubated overnight. Then the cell culture medium is replaced with 90 μL/well serum-free DMEM medium. The plates are incubated overnight for starvation.
Compound dilution and treatment: the test compounds are diluted in a 3-fold series in FBS-free medium containing 5% DMSO. 10 μL/well of the diluted compound is added into cells, 10 μL/well of 5% DMSO without test compound is added into the control wells. Duplication study is performed for each test point. Then, the plates are incubated at 37° C. for 60 minutes in a 5% CO2 incubator. 10 μL/well of 200 ng/mL EGF (Biosource, PHG0064) is added and incubate the plates at 37° C. for 45 minutes in the 5% CO2 incubator.
Lysate preparation: the medium is removed, and 100 μL/well of 50 mM Tris-Cl, pH 8.0 cell lysis buffer (containing 0.5 M NaCl, 0.2 mM EDTA, 0.1% Triton X-100, 1 μg/mL aprotinin, 0.75 μg/mL leupeptin, 1 μg/mL pepstatin, 1 mM DTT, 500 μM sodium vanadate, and 1 mM PMSF) is added into each well to lyse cells. The protease inhibitors are added right before use. The cell lysate is frozen at −80° C. overnight.
Plate coating and blocking: 100 μL/well of 0.5 μg/ml anti-EGFR antibody (Perkin Elmer, AF231) diluted in PBS is added to a 96-well DELFIA plate (Perkin Elmer, AAAND-0001) and incubated at 25° C. overnight with gentle shaking. The solution is discarded. The plate is washed 3 times with 200 μL/well of DELFIA wash buffer (PBS buffer containing 0.05% Tween-20). 200 μL/well of blocking buffer (PBS containing 0.137 M of NaCl, 0.0027 M of KCl, 0.01 M of Na2PO4.12H2O, 0.0015 M of KH2PO4, pH7.4, and 1% BSA) is added into each well and the plate is incubated at 25° C. for 2 h with gentle shaking.
Binding: the blocking buffer is discarded and the plate is washed with 200 μL/well of DELFIA wash buffer 3 times. 80 μL/well of the sample diluent (20 mM Tris-Cl/pH7.3, 150 mM NaCl, 0.1% of BSA, and 0.05% Tween-20) and 20 μL/well of cell lysate are then added to each well. Incubate the plate at 25° C. for additional 1 h with gentle shaking.
Detection: The plate is washed again with 200 μL/well of DELFIA wash buffer for 3 times. 100 μL/well of […] Eu-PT66 antibody (Perkin Elmer, AD0040) diluted in DELFIA assay buffer (Perkin Elmer, 1244-106) is added and incubate the plate at 25° C. for 1 h with gentle shaking. After washing with 200 μL/well of DELFIA wash buffer 3 times, 100 μL/well of DELFIA enhancement buffer (Perkin Elmer, 4001-0010) is added. Incubate the plate at 25° C. for 30 min with gentle shaking.
Readout: fluorescence signal is measured at 340 nm excitation and 620 nm emission on Victor^3 (PerkinElmer).
Inhibition rates are calculated as follow:
[Fluorescence Readout]Treated is the readout of the wells treated with test compound upon EGF stimulation
[Fluorescence Readout]Untreated is the readout of the wells with neither compound treatment nor EGF stimulation, which is used as cell background signal
[Fluorescence Readout]EGF is the readout of wells with EGF stimulation, but no compound treatment, which is used as maximal signal
IC50 is calculated using XL-Fit 2.0 software.

The test system of assay [1] is HCC827 (human non small cell lung cancer, NSCLC) xenograft. As to the kind of experiment: In vivo anti-tumor test, HCC827 subcutaneous xenograft. The conditions noted are these: HCC827 xenograft in nude mice. As for the experimental part:
(§1) Human tumor cell lines: Fadu (human head and neck, pharynx carcinoma, HTB-43), HCC827 (human non small cell lung cancer, NSCLC; CRL-2868), A431 (human epidermoid carcinoma, CRL-2592) cell lines were purchased from ATCC; Fadu, HCC827 and A431 cells were grown in EMEM, RPMI 1640 and DMEM medium plus 10% FBS respectively. These cells were incubated in a humidifier incubator at 37° C. and under 5% CO2.
(§2) Animals: Athymic mice (6-8 weeks) were purchased from Shanghai SLAC laboratory animal CO. LTD. The animals were housed in the SPF environment, 4 animals/cage under standard conditions (12:12 h light/dark, 40-50% relative humidity at 20-25° C.) and were given free access to Co^60 radiated-sterile diet and sterile water.
(§3) Agents: Test compounds were formulated in sterile 0.5% CMC-Na at different concentrations (0.05˜1.0 mg/mL), and then stored at 4° C.
(§4) Subcutaneous implantation of tumor cells and anti-tumor efficacy study: The tumor cells were incubated at 37° C. in a 5% CO2 incubator until they reached approximately 80% confluence. Cells were detached by 0.05% Trypsin-EDTA, centrifuged at 800 rpm, and the cells were suspended in serum free medium. The concentration was adjusted for nude mice implantation. The nude mice were quarantined for several days before implantation, and 3×10^6 FaDu or A431 cells in 0.1 mL medium, or 5×10^6 HCC827 cells in the 0.2 mL medium were subcutaneously injected to the right lateral flank of nude mice.
One to three weeks after inoculation, when average tumor volume reached 100-300 mm^3, the animals were randomized and divided into vehicle and compound treated groups. The mice were orally administrated with either the vehicle, 0.5% CMC-Na, or the test compounds at different dose levels once a day. Tumor volume was measured 2-3 times per week by caliper for length and width, and was calculated using the formula: Tumor volume (TV, mm^3)=width^2×length/2. Animal body weight and behavior were observed during the experiment. Tumor growth inhibition was calculated as follows: TGI (%)=100−(T−T0)/(C−C0)×100%, where T represents mean tumor volume of a treated group on a specific day during the experiment, T0 represents mean tumor volume of the same treated group on the first day of treatment, C represents mean tumor volume of a control group on the specific day during the experiment, and C0 represents mean tumor volume of the same control group on the first day of treatment.
Tumor volume data were expressed as Mean±SD. One-way ANOVA was used for multiple comparisons and Student's t-test was used for comparison with vehicle control. Differences were considered statistically significant at P<0.05.

For assay [2], the system named is A431 (human epidermoid carcinoma) xenograft. As to the kind of experiment: In vivo anti-tumor test, A431 subcutaneous xenograft. To be noted: A431 xenograft in nude mice. The procedure: as §1, §2, §3, §4
(§5) One to three weeks after inoculation, when average tumor volume reached 100-300 mm^3, the animals were randomized and divided into vehicle and compound treated groups. The mice were orally administrated with either the vehicle, 0.5% CMC-Na, or the test compounds at different dose levels once a day. Tumor volume was measured 2-3 times per week by caliper for length and width, and was calculated using the formula: Tumor volume (TV, mm^3)=width^2×length/2. Animal body weight and behavior were observed during the experiment. […]
(§6) Tumor volume data were expressed as Mean±SD. […]

A further assay deals with T2, hERG channels (Homo sapiens, UniProt Q12809).
T2 construct: expressed in transfected cells; host or cells: CHO
T2 sequence (Q12809 whole entry): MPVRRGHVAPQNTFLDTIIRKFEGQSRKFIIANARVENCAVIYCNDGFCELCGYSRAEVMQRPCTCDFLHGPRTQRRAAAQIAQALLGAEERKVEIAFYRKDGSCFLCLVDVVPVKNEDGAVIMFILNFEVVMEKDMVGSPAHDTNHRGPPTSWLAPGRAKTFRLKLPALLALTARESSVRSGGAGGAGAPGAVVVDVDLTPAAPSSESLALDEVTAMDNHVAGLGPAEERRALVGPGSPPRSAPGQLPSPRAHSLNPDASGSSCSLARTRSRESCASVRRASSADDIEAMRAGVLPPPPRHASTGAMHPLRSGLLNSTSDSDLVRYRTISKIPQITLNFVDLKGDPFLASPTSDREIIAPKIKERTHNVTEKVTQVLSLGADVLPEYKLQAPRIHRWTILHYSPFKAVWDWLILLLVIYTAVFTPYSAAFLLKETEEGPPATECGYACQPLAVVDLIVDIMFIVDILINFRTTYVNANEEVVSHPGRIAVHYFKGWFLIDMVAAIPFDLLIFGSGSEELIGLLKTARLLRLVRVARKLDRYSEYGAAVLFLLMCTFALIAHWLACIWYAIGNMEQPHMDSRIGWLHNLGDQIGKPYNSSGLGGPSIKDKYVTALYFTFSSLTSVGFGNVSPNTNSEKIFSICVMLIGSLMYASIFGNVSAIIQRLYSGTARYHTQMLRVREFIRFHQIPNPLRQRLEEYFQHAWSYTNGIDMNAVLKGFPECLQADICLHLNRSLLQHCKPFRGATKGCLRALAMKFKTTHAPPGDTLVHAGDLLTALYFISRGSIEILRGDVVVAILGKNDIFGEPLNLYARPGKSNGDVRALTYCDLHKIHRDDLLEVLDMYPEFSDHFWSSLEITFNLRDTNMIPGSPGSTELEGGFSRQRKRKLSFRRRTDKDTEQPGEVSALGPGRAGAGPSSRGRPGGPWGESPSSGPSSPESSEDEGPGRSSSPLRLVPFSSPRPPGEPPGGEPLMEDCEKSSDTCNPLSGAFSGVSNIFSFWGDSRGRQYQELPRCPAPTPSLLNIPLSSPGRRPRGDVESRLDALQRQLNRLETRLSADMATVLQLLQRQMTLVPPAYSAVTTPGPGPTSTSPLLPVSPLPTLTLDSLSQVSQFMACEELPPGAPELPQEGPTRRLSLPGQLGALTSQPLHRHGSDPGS
As to the kind of experiment: hERG assay, manual whole-cell patch clamp. The class given is cell-based. The conditions noted are these: CHO cells expressing hERG, five concentrations, read-out: IC50 for inhibition of hERG tail currents. The procedure:
A CHO cell line stably transfected with hERG cDNA and expressing hERG channels was used for the study. Cells were cultured in medium containing:
For the electrophysiological recordings the following solutions were used
Whole-cell recordings were performed using a EPC10 USB(HEKA). The cells were voltage clamped at a holding potential of −80 mV. The hERG current was activated by depolarizing at +20 mV for 2 sec, after which the current was taken back to −50 mV for 2 sec to remove the inactivation and observe the deactivating tail current. The first step at −50 mV was used as a baseline for measuring the tail current peak amplitude.
Compounds were prepared as a 10 mM DMSO stock in a glass vial. The stock solution was mixed vigorously for 10 minute at room temperature. For testing, the compound was diluted in a glass vial using solution; the dilution was prepared no longer than 30 minutes before use. Equal amounts of DMSO (0.1%) were present at final dilution.
After achieving whole-cell configuration, the cells were monitored for 90 sec to assess stability and washed with external solution for 66 sec. The voltage protocol described above was then applied to the cells every 20 sec throughout the whole procedure. Only stable cells with recording parameters above threshold were allowed to enter the drug addition procedure. […]
Data were analyzed using Pulsefit and Origin 7 (Originlab Corporation).
On the technique in general: hERG is a cardiac potassium channel; its block is linked to QT prolongation.

For assay [3], the system named is Fadu (human head and neck, pharynx carcinoma) xenograft. As to the kind of experiment: In vivo anti-tumor test, FaDu subcutaneous xenograft. The conditions noted are these: FaDu xenograft in nude mice. As for the experimental part: as §1, §2, §3, §4, §5, §6

T1 sequence (P00533 25-1210): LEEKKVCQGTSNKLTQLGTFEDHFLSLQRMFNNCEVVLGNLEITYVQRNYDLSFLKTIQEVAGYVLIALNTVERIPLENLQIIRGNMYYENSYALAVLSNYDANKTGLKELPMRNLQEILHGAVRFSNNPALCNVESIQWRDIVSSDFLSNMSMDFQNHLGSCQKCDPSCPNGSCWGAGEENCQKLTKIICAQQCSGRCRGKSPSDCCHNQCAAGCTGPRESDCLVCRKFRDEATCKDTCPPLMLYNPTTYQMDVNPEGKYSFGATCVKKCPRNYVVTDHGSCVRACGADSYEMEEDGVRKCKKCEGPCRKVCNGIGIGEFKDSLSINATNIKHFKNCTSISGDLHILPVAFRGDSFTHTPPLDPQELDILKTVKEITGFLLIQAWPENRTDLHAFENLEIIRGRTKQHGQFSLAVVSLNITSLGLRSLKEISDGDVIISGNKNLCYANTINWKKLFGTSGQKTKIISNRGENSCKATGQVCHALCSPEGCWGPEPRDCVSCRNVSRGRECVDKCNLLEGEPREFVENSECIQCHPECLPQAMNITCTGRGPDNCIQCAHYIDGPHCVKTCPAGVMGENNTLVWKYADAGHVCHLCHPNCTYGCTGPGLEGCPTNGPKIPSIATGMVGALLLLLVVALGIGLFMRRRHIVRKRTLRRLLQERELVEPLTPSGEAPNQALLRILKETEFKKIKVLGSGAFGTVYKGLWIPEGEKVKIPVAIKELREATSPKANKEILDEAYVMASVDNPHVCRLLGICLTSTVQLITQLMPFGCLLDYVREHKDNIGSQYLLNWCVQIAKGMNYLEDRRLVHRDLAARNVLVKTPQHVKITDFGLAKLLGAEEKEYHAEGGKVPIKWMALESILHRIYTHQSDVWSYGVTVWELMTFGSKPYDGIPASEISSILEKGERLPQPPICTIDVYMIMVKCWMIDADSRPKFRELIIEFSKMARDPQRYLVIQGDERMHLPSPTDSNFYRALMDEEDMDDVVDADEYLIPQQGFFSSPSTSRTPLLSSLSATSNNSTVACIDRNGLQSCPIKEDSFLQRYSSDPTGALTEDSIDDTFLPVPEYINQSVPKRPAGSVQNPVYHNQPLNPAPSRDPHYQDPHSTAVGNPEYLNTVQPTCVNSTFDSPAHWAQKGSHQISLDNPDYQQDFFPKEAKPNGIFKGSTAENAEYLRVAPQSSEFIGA

For orientation: IC50 means the concentration at which inhibition is half-maximal. Consider `COc1cc2ncnc(Nc3ccc4c(cnn4Cc4cccc(F)c4)c3)c2cc1NC(=O)N1C[C@H]2CCN(C)[C@H]2C1` [Compound 1, (3aR,6aR)—N-(4-(1-(3-fluorobenzyl)-1H-indazol-5-ylamino)-7-methoxyquinazolin-6-yl)-1-methylhexahydropyrrolo[3,4-b]pyrrole-5(1H)-carboxamide], for which the 50% inhibitory concentration (IC50) at EGFR came out at 185 nM.

For `COc1cc2ncnc(Nc3ccc4c(cnn4Cc4cccc(F)c4)c3)c2cc1NC(=O)N1C[C@@H]2CCN(C)[C@@H]2C1` [Compound 2, (3aS,6aS)—N-(4-(1-(3-fluorobenzyl)-1H-indazol-5-ylamino)-7-methoxyquinazolin-6-yl)-1-methylhexahydropyrrolo[3,4-b]pyrrole-5(1H)-carboxamide], the half-inhibitory concentration (IC50) on EGFR is 439 nM.

Turning to `C#Cc1cccc(Nc2ncnc3cc(OC)c(NC(=O)N4C[C@H]5CCN(C)[C@H]5C4)cc23)c1` [Compound 3, (3aR,6aR)—N-(4-(3-ethynylphenylamino)-7-methoxyquinazolin-6-yl)-1-methyl-hexahydropyrrolo[3,4-b]pyrrole-5(1H)-carboxamide], the concentration for half-maximal inhibition (IC50) came out at 6 nM at EGFR and 9300 ± 1200 nM at hERG channels. The TGI % stood at 59.2% in assay [1] (0.5 mpk p.o. qd x 21 days); 114.7% in assay [1] (1 mpk p.o. qd x 21 days); 127.8% in assay [1] (2 mpk p.o. qd x 21 days); 140.8% in assay [1] (5 mpk p.o. qd x 21 days); 21.3% in assay [2] (2 mpk p.o. qd x 21 days); 62.8% in assay [2] (5 mpk p.o. qd x 21 days). For the same compound, the TGI % in assay [2] (10 mpk p.o. qd x 21 days) is 85.3%; in assay [3] (2 mpk p.o. qd x 21 days) it was 46.1%; in assay [3] (5 mpk p.o. qd x 21 days), 66.9%; in assay [3] (10 mpk p.o. qd x 21 days), 95.2%.

Regarding `COc1cc2ncnc(Nc3ccc(OCc4cccc(F)c4)c(Cl)c3)c2cc1NC(=O)N1C[C@@H]2CCN(C)[C@@H]2C1` [Compound 4, (3aS,6aS)—N-(4-(3-chloro-4-(3-fluorobenzyloxy)phenylamino)-7-methoxyquinazolin-6-yl)-1-methylhexahydropyrrolo[3,4-b]pyrrole-5(1H)-carboxamide], the IC50 at EGFR worked out at 16 nM.

In the case of `COc1cc2ncnc(Nc3ccc(OCc4cccc(F)c4)c(Cl)c3)c2cc1NC(=O)N1C[C@H]2CCN(C)[C@H]2C1` [Compound 5, (3aR,6aR)—N-(4-(3-chloro-4-(3-fluorobenzyloxy)phenylamino)-7-methoxyquinazolin-6-yl)-1-methylhexahydropyrrolo[3,4-b]pyrrole-5(1H)-carboxamide], on EGFR, the 50% inhibitory concentration (IC50) came to 44 nM.

Consider `CN1CC[C@H]2CN(C(=O)Nc3ccc4ncnc(Nc5ccc(OCc6cccc(F)c6)c(Cl)c5)c4c3)C[C@H]21` [Compound 6, (3aS,6aS)—N-(4-(3-chloro-4-(3-fluorobenzyloxy)phenylamino)quinazolin-6-yl)-1-methylhexahydropyrrolo[3,4-b]pyrrole-5(1H)-carboxamide], for which the IC50 at EGFR was 210 nM.

In the case of `CN1CC[C@@H]2CN(C(=O)Nc3ccc4ncnc(Nc5ccc(OCc6cccc(F)c6)c(Cl)c5)c4c3)C[C@@H]21` [Compound 7], the IC50 on EGFR worked out at 241 nM.
